{"source": "patent US4575509A", "about": "“Water-soluble formulations of m-AMSA with pyroglutamic acid” (Bristol-Myers Company, priority 1984, dated 1986)", "key": {"[1]": {"test": "Solubility test in sterile water for injection (saturated filtrate, HPLC, m-AMSA base content)", "type": "physicochemical", "settings": "0.22μ filtrate, HPLC assay within one hour after reconstitution", "experimental": "To determine the relative solubilities of the pyroglutamate salts and compositions of the present invention and the prior art m-AMSA methanesulfonate salt, the following solubility test was carried out.\nThe following formulations were tested: […]\nThe formulations were prepared as follows: […]\n(1) The m-AMSA methanesulfonate salt was prepared by slurrying 1 g of m-AMSA base in 125 ml of acetone for 20 minutes. The resulting near solution was vacuum filtered to remove undissolved solids. The solids remaining in the filter were washed with 10 ml of acetone and the wash solution was added to the original filtrate. To the above solution of m-AMSA base there was added with rapid stirring 0.24 ml of methanesulfonic acid over a three minute interval. Crystals formed and the mixture was stirred five additional minutes. The crystals were then vacuum filtered, washed with two 20 ml portions of acetone and vacuum dried at 50° C. for 24 hours to give 1.18 g of m-AMSA methanesulfonate (1:1) salt.\n(2) The composition containing m-AMSA base and methanesulfonic acid (1:2 ratio) was prepared by adding 1 equivalent of methanesulfonic acid to the 1:1 m-AMSA methanesulfonate salt prepared above.\n(3) The 1:1 m-AMSA pyroglutamate salt was prepared as described in Example 1.\n(4) The 1:2 m-AMSA pyroglutamate salt was prepared as described in Example 2.\nTo carry out the solubility test, accurately weighed amounts of the above-described formulations were added into accurately measure amounts of sterile water for injection and the mixture was shaken by Vortex® mixer for 5 minutes to yield a complete solution. The procedure was continued until no more material dissolved in the solution. The saturated solutions were then passed through a 0.22μ Millipore® filter. The resultant clear filtrates were sampled and assayed via HPLC assay within one hour after reconstitution. Solubility was measured as the m-AMSA base content in the filtrate."}, "[2]": {"test": "physchem", "type": "physicochemical", "settings": "water", "experimental": "DL-Pyroglutamic acid (130 mg) was dispersed in 20 ml of acetone to form a solution. To this solution there was added 400 mg of m-AMSA free base. The mixture was stirred and 10 ml of methyl alcohol added drop by drop. Upon agitation, a yellow solid gradually precipitated. The precipitate was collected, washed twice with acetone and dried in vacuo to give the title salt having a melting point of 156°-158° C. and an aqueous solubility at room temperature of about 10 mg/ml.\nm-AMSA base (400 mg) was suspended in 30 ml of dried acetone. With gentle stirring, a solution was obtained by gradually adding a solution of 260 mg of DL-pyroglutamic acid in 15 ml of methanol to the above suspension. Two 10 ml portions of dried methanol were added to the solution to precipitate the dipyroglutamate salt. The salt was isolated by filtration, washed with methanol and dried in a vacuum dessicator. The yield of dipyroglutamate salt was about 600 mg; mp 145°-148° C."}, "[3]": {"test": "physchem", "type": "physicochemical", "settings": "water, found by the present inventors, read-out: aqueous solubility"}, "[4]": {"settings": "literature references / prior art, cited from earlier work"}, "[5]": {"system": "animal tumor systems", "settings": "Cain et al. 1974; cited from earlier work"}, "[6]": {"settings": "initial results; cited from earlier work"}, "[7]": {"settings": "penicillin G, ampicillin, cephalothin etc.; U.S. Pat. No. 3,920,814; cited from earlier work"}}, "note": "Counter-ions that a name gives are not always drawn. Like-named read-outs stand apart in the source and are kept apart here.", "data": [{"compound": "COc1cc(NS(C)(=O)=O)ccc1Nc1c2ccccc2nc2ccccc12", "note": "[Example 1, m-AMSA Mono DL-Pyroglutamate Salt]", "values": [{"measurement": "Solubility (mg/ml m-AMSA base)", "setting": "[1]; listed as m-AMSA pyroglutamate salt (1:1)", "value": 12.5, "unit": "mg/ml m-AMSA base"}, {"measurement": "solubility", "setting": "[2]; room temperature, read-out: aqueous solubility", "value": "~10000", "unit": "µg/mL"}]}, {"compound": "COc1cc(NS(C)(=O)=O)ccc1Nc1c2ccccc2nc2ccccc12", "note": "[Example 2, m-AMSA Di DL-Pyroglutamate Salt]", "values": [{"measurement": "Solubility (mg/ml m-AMSA base)", "setting": "[1]; listed as m-AMSA pyroglutamate salt (1:2)", "value": 13.1, "unit": "mg/ml m-AMSA base"}, {"measurement": "solubility", "setting": "[2]; m-AMSA base content by HPLC, read-out: aqueous solubility (m-AMSA base content as determined by HPLC)", "value": 13100, "unit": "µg/mL"}]}, {"compound": "COc1cc(NS(C)(=O)=O)ccc1Nc1c2ccccc2nc2ccccc12", "note": "[m-AMSA methanesulfonate salt (1:1), m-AMSA methanesulfonate salt]", "values": [{"measurement": "Solubility (mg/ml m-AMSA base)", "setting": "[1]; methanesulfonate salt", "value": 0.090, "unit": "mg/ml m-AMSA base"}, {"measurement": "solubility", "setting": "[3]", "value": "~90", "unit": "µg/mL"}, {"measurement": "solubility in water (words)", "setting": "[4]; listed as monomethanesulfonate salt of m-AMSA, methanesulfonate salt", "value": "sufficiently soluble for experimental small animal (mice) antitumor studies"}, {"measurement": "solubility in water (words)", "setting": "[4]; listed as monomethanesulfonate, methanesulfonate salt", "value": "insufficiently water-soluble for practical dosage forms"}, {"measurement": "solubility in water (words)", "setting": "[4]; methanesulfonate salt", "value": "only slightly soluble in water"}]}, {"compound": "COc1cc(NS(C)(=O)=O)ccc1Nc1c2ccccc2nc2ccccc12", "note": "[m-AMSA]", "values": [{"measurement": "solubility in water (words)", "setting": "[4]", "value": "very limited solubility in water"}, {"measurement": "antitumor activity", "setting": "[5]", "value": "significant antitumor activity"}, {"measurement": "clinical evaluation", "setting": "[6]", "value": "very promising initial results"}]}, {"compound": "COc1cc(NS(C)(=O)=O)ccc1Nc1c2ccccc2nc2ccccc12", "note": "[monohydrochloride]", "values": [{"measurement": "solubility in water (words)", "setting": "[4]", "value": "insufficiently water-soluble for practical dosage forms"}, {"measurement": "solubility in water (words)", "setting": "[4]; listed as hydrochloride", "value": "only slightly soluble in water"}]}, {"compound": "O=C1CCC(C(=O)O)N1", "note": "(stereo not drawn) [pyroglutamic acid, 2-pyrrolidone-5-carboxylic acid]", "values": [{"measurement": "effect on antibiotics", "setting": "[7]", "value": "potentiate the intrinsic activity and blood levels of certain antibiotics"}]}]}
